Assay: xn = mol fraction of the nth substance listed
Conditions: 100 kPa

O=C1CCCCC1 + CCCC[n+]1ccn(C)c1C.F[B-](F)(F)F
x2 = 0
Conditions	speed of sound [m/s]
298.15 K	1414.5
308.15 K	1375.1

CCCC[n+]1ccn(C)c1C.F[B-](F)(F)F + O=C1CCCCC1
speed of sound [m/s]
Conditions	293.15 K	298.15 K	303.15 K	308.15 K
x1 = 0.0834	1450.2	1433.6	1413.1	1392
x1 = 0.1328	1459.4	1442.1	1421.5	–
x1 = 0.1764	1467.2	1448.8	1427.9	1406.3
x1 = 0.2258	1472.4	–	1433.4	1412.3
x1 = 0.2675	1476.1	1458.1	1437.7	1417.1
x1 = 0.3094	1479.6	–	1441.5	1420.8
x1 = 0.3824	1486	1468.5	–	1428.9
x1 = 0.4368	–	–	1454.6	1434.8
x1 = 0.4755	1496	1478.6	–	1440.1
x1 = 0.5276	1503.2	1486.2	1467.5	1448.5
x1 = 0.5649	1509.3	1492.5	1474.1	1455.6
x1 = 0.6063	1517	1500.4	1482.5	1464.2
x1 = 0.6451	1525.2	1508.9	–	1473.4
x1 = 0.6947	–	1521.1	1504.3	1487.3
x1 = 0.7419	1550.5	1534.8	1518.7	–
x1 = 0.7994	–	1553.9	–	–
x1 = 0.8527	1589.2	1574.3	1559.8	1544.8
x1 = 0.9134	1615.7	–	1587.9	–
x1 = 1	1659.7	1645.7	1632.5	–

Source: a compilation of properties of binary mixtures (doi:10.1016/j.molliq.2017.02.011)
